pIC50: −log10 of the molar value.
System: NCI-H23 complex spheroids with HUVEC/MSC, viability
Experiment: Anticancer human tumor NCI-H23 cell line growth inhibition [RAS];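 also: spheroids exposed to compound for 7 days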;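 as to viability, T/C: 100% = DMSO vehicle control viability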
Conditions: for pIC50: curve of first compound; for viability, T/C: stronger effect = lower value
Method in brief: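 Tumour cells grown as complex spheroids with HUVEC endothelial cells and mesenchymal stem cells, treated with RAS pathway inhibitor combinations. Each agent spans half-log steps from near clinical Cmax, or 10 microM where Cmax is unknown.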

[1] = second compound 0.00316 µM, first compound 0.0316 µM
[2] = second compound 0.00316 µM, first compound 0.1 µM
[3] = second compound 0.00316 µM, first compound 0.316 µM
[4] = second compound 0.00316 µM, first compound 1 µM
[5] = second compound 0.00316 µM, first compound 3.16 µM
[6] = second compound 0.00316 µM, first compound 10 µM
[7] = second compound 0.01 µM, first compound 0.0316 µM
[8] = second compound 0.01 µM, first compound 0.1 µM
[9] = second compound 0.01 µM, first compound 0.316 µM
[10] = second compound 0.01 µM, first compound 1 µM
[11] = second compound 0.01 µM, first compound 3.16 µM
[12] = second compound 0.01 µM, first compound 10 µM
[13] = second compound 0.0316 µM, first compound 0.0316 µM
[14] = second compound 0.0316 µM, first compound 0.1 µM
[15] = second compound 0.0316 µM, first compound 0.316 µM
[16] = second compound 0.0316 µM, first compound 1 µM
[17] = second compound 0.0316 µM, first compound 3.16 µM
[18] = second compound 0.0316 µM, first compound 10 µM
[19] = second compound 0.1 µM, first compound 0.0316 µM
[20] = second compound 0.1 µM, first compound 0.1 µM
[21] = second compound 0.1 µM, first compound 0.316 µM
[22] = second compound 0.1 µM, first compound 1 µM
[23] = second compound 0.1 µM, first compound 3.16 µM
[24] = second compound 0.1 µM, first compound 10 µM
[25] = second compound 0.316 µM, first compound 0.0316 µM
[26] = second compound 0.316 µM, first compound 0.1 µM
[27] = second compound 0.316 µM, first compound 0.316 µM
[28] = second compound 0.316 µM, first compound 1 µM
[29] = second compound 0.316 µM, first compound 3.16 µM
[30] = second compound 0.316 µM, first compound 10 µM
[31] = second compound 1 µM, first compound 0.0316 µM
[32] = second compound 1 µM, first compound 0.1 µM
[33] = second compound 1 µM, first compound 0.316 µM
[34] = second compound 1 µM, first compound 1 µM
[35] = second compound 1 µM, first compound 3.16 µM
[36] = second compound 1 µM, first compound 10 µM

CCC(CC)c1cc(NC2CCC(N)C2)n2nccc2n1 (centres undefined) + C=CC(=O)N1CCN(c2nc(OCC3CCCN3C)nc3c(F)c(-c4nc(N)cc(C)c4C(F)(F)F)c(Cl)cc23)C(C)C1
pIC50 (second compound 0.00316 µM): 6.00
pIC50 (second compound 0.01 µM): 6.25
pIC50 (second compound 0.0316 µM): > 7.50
pIC50 (second compound 0.1 µM): > 7.50
pIC50 (second compound 0.316 µM): > 7.50
pIC50 (second compound 1 µM): > 7.50
viability, T/C [1]: 64.8%
viability, T/C [2]: 75.2%
viability, T/C [3]: 57.1%
viability, T/C [4]: 51.4%
viability, T/C [5]: 5.05%
viability, T/C [6]: 0.45%
viability, T/C [7]: 52.7%
viability, T/C [8]: 62.7%
viability, T/C [9]: 55.2%
viability, T/C [10]: 43.2%
viability, T/C [11]: 4.13%
viability, T/C [12]: 0.6%
viability, T/C [13]: 44.7%
viability, T/C [14]: 47.1%
viability, T/C [15]: 42.9%
viability, T/C [16]: 36.5%
viability, T/C [17]: 3.39%
viability, T/C [18]: 0.5%
viability, T/C [19]: 39.3%
viability, T/C [20]: 50.3%
viability, T/C [21]: 38.7%
viability, T/C [22]: 36.5%
viability, T/C [23]: 2.7%
viability, T/C [24]: 0.48%
viability, T/C [25]: 36.2%
viability, T/C [26]: 37.8%
viability, T/C [27]: 39.9%
viability, T/C [28]: 36.7%
viability, T/C [29]: 4.1%
viability, T/C [30]: 0.41%
viability, T/C [31]: 34.6%
viability, T/C [32]: 42.8%
viability, T/C [33]: 41.1%
viability, T/C [34]: 38.5%
viability, T/C [35]: 4.68%
viability, T/C [36]: 0.53%

Cc1nc(N2CCC3(CC2)COC(C)C3N)c(CO)nc1Sc1ccnc(N)c1Cl (centres undefined) + C=CC(=O)N1CCN(c2nc(OCC3CCCN3C)nc3c(F)c(-c4nc(N)cc(C)c4C(F)(F)F)c(Cl)cc23)C(C)C1
pIC50 (second compound 0.00316 µM): > 7.50
pIC50 (second compound 0.01 µM): > 7.50
pIC50 (second compound 0.0316 µM): > 7.50
pIC50 (second compound 0.1 µM): > 7.50
pIC50 (second compound 0.316 µM): > 7.50
pIC50 (second compound 1 µM): > 7.50
viability, T/C [1]: 47.4%
viability, T/C [2]: 48.5%
viability, T/C [3]: 32%
viability, T/C [4]: 27%
viability, T/C [5]: 31.7%
viability, T/C [6]: 25.4%
viability, T/C [7]: 44.3%
viability, T/C [8]: 42.3%
viability, T/C [9]: 26.7%
viability, T/C [10]: 28.5%
viability, T/C [11]: 22.6%
viability, T/C [12]: 16.4%
viability, T/C [13]: 36%
viability, T/C [14]: 33.6%
viability, T/C [15]: 24.7%
viability, T/C [16]: 26.7%
viability, T/C [17]: 21.1%
viability, T/C [18]: 20%
viability, T/C [19]: 37.2%
viability, T/C [20]: 35.5%
viability, T/C [21]: 25.8%
viability, T/C [22]: 23.9%
viability, T/C [23]: 19.7%
viability, T/C [24]: 17.2%
viability, T/C [25]: 31.1%
viability, T/C [26]: 31.6%
viability, T/C [27]: 30.2%
viability, T/C [28]: 23.2%
viability, T/C [29]: 23.3%
viability, T/C [30]: 17.5%
viability, T/C [31]: 36.6%
viability, T/C [32]: 32.8%
viability, T/C [33]: 26.6%
viability, T/C [34]: 18.6%
viability, T/C [35]: 22.7%
viability, T/C [36]: 17.9%

— PubChem BioAssay AID2060885 (Molecular Pharmacology Branch, DTP, NCI, 2025)
